Results on five molecules are retold here after article PMC3593249 (Biochemical pharmacology, 2013).

The test system of one test is α7 nAChR. The note with it: cited from earlier work.
The target in test [1] is T1, α7 nAChR S36T mutant (Homo sapiens, UniProt P36544, S58T). The test is described as follows: Residual desensitization. In kind it is cell-based. To be noted: read-out: IC50 (RD curve), potency for producing long-lasting desensitization, 12 s applications.
The target of test [2] is T2, α7 nAChR S36C mutant (Homo sapiens, UniProt P36544, S58C). The test can be described thus: Concentration-response curves. In kind it is cell-based. To be noted: for Imax: maximal response relative to the maximal response from ACh (ACh = 1); for pEC50: net charge CRC, parenthetical = curve-fit error.
In test [3] the target is T1, α7 nAChR S36T mutant. The test can be described thus: Concentration-response curves. It counts as cell-based. The note with it: for Imax: maximal response relative to the maximal response from ACh (ACh = 1); for pEC50: net charge CRC, parenthetical = curve-fit error.
In test [4] the target is T3, WT α7 nAChR (Homo sapiens, UniProt P36544). The test can be described thus: Residual desensitization. In kind it is cell-based. To be noted: for pIC50: read-out: IC50 (RD curve), potency for producing long-lasting desensitization, 12 s applications.
Test [5] addresses T4, α7 nAChR S36A mutant (Homo sapiens, UniProt P36544, S58A). The test can be described thus: Concentration-response curves. It counts as cell-based. The note with it: for Imax: maximal response relative to the maximal response from ACh (ACh = 1); for pEC50: net charge CRC, parenthetical = curve-fit error.
Test [6] deals with T3, WT α7 nAChR. The test can be described thus: Induction of Ds: 30 µM PNU-120596 applied after 5-minute drug bath. In kind it is cell-based. The note with it: for desensitized state after high-concentration incubation (PNU-120596 response): high concentration: BA 300 µM, 4MeBA 100 µM.
Test [7] has as its target T5, α7 nAChR S36V mutant (Homo sapiens, UniProt P36544, S58V). The test can be described thus: Concentration-response curves. In kind it is cell-based. To be noted: for Imax: maximal response relative to the maximal response from ACh (ACh = 1); for pEC50: net charge CRC, parenthetical = curve-fit error.
The target in test [8] is T4, α7 nAChR S36A mutant. The test is described as follows: Residual desensitization. The note with it: read-out: IC50 (RD curve), potency for producing long-lasting desensitization, 12 s applications. In kind it is cell-based.
In test [9] the target is T2, α7 nAChR S36C mutant. The test is described as follows: Residual desensitization. It counts as cell-based. The note with it: read-out: IC50 (RD curve), potency for producing long-lasting desensitization, 12 s applications.
Test [10] addresses T5, α7 nAChR S36V mutant. The test is described as follows: Residual desensitization. To be noted: read-out: IC50 (RD curve), potency for producing long-lasting desensitization, 12 s applications. It counts as cell-based.
In test [11] the target is T3, WT α7 nAChR. The test can be described thus: Concentration-response curves. It counts as cell-based. The note with it: for Imax: maximal response relative to the maximal response from ACh (ACh = 1); for pEC50: net charge CRC, potency for agonism, parenthetical = curve-fit error.
Test [12] has as its target T6, α7 nAChR S36I mutant (Homo sapiens, UniProt P36544, S58I). The test is described as follows: Residual desensitization. The note with it: read-out: IC50 (RD curve), potency for producing long-lasting desensitization, 12 s applications. In kind it is cell-based.
Test [13] addresses T7, α7 nAChR S36G mutant (Homo sapiens, UniProt P36544, S58G). The test is described as follows: Residual desensitization. It counts as cell-based. The note with it: read-out: IC50 (RD curve), potency for producing long-lasting desensitization, 12 s applications.
The target of test [14] is T7, α7 nAChR S36G mutant. It counts as cell-based. The note with it: for Imax: maximal response relative to the maximal response from ACh (ACh = 1); for pEC50: net charge CRC, parenthetical = curve-fit error.
In test [15] the target is T6, α7 nAChR S36I mutant. The test is described as follows: Concentration-response curves. In kind it is cell-based. To be noted: for Imax: maximal response relative to the maximal response from ACh (ACh = 1); for pEC50: net charge CRC, parenthetical = curve-fit error.
Test [16] has as its target T3, WT α7 nAChR. The test is described as follows: 5-minute bath incubation, 1 mM ACh probe and post-control ACh applications. In kind it is cell-based.
In test [17] the target is T7, α7 nAChR S36G mutant. The test is described as above. It counts as cell-based. The note with it: 30 µM drug bath, 5 minutes, then 1 mM ACh probe.

pEC50, pIC50: −log10 of the molar value. Values joined by “and” are separate entries in the source; they are usually repeats but may differ in a detail not shown here. Equal entries are not always repeated.

T3 sequence (P36544 23-502): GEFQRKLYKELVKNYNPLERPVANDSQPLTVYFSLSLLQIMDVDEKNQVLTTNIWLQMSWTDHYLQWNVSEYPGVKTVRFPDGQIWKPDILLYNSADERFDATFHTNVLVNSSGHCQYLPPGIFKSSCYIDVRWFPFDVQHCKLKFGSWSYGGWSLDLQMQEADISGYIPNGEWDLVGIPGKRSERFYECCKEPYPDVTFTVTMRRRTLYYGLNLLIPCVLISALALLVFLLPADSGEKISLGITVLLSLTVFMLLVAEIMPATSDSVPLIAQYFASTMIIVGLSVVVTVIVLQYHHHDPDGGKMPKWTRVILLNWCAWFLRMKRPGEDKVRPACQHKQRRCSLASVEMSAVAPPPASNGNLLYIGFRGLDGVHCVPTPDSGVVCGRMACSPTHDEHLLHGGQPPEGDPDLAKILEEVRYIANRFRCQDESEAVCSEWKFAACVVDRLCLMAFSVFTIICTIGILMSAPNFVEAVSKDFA
T7 sequence (P36544 23-502 S58G): as the sequence (P36544 23-502) above, with S36G counted along it
T2 sequence (P36544 23-502 S58C): as the sequence (P36544 23-502) above, with S36C counted along it
T6 sequence (P36544 23-502 S58I): as the sequence (P36544 23-502) above, with S36I counted along it
T1 sequence (P36544 23-502 S58T): as the sequence (P36544 23-502) above, with S36T counted along it
T4 sequence (P36544 23-502 S58A): as the sequence (P36544 23-502) above, with S36A counted along it
T5 sequence (P36544 23-502 S58V): as the sequence (P36544 23-502) above, with S36V counted along it

For `Oc1ccc(C=C2CCCN=C2c2cccnc2)c(O)c1` [2,4diOHBA, 3-(2,4-dihydroxybenzylidene)anabaseine], in the test on α7 nAChR, the RD production result is “practically none”.
As usually defined, the pIC50 is the IC50 on a negative log10 scale, so that one unit is a factor of ten. In general, pEC50 refers to −log10 of the EC50, conventionally taken in molar units. For the molecule `Cc1ccc(C=C2CCCN=C2c2cccnc2)cc1` [4MeBA, 3-(4-methylbenzylidene)anabaseine], the pIC50 was 3.35 on α7 nAChR S36T mutant [1]; 3.96 at WT α7 nAChR [4]; 3.84 on α7 nAChR S36A mutant [8]; 4.28 at α7 nAChR S36C mutant [9]; 4.04 on α7 nAChR S36V mutant [10]; 3.82 at α7 nAChR S36I mutant [12]. Also, the pIC50 at α7 nAChR S36G mutant [13] is 4.29. Besides, the Imax on α7 nAChR S36C mutant [2] was 0.14(0.02); on α7 nAChR S36T mutant [3], 0.19(0.02); on α7 nAChR S36A mutant [5], 0.19(0.04); at α7 nAChR S36V mutant [7] it was 0.15(0.04); on WT α7 nAChR [11] it was 0.14(0.01); at α7 nAChR S36G mutant [14], 0.31(0.02). Moreover, the Imax at α7 nAChR S36I mutant [15] is 0.088(0.007). For the same molecule, the negative-log EC50 (pEC50) was 5.26 at α7 nAChR S36C mutant [2]; 4.47 on α7 nAChR S36T mutant [3]; 5.10 at α7 nAChR S36A mutant [5]; 5.46 on α7 nAChR S36V mutant [7]; 4.52 and 4.54 on WT α7 nAChR [11]; 5.02 at α7 nAChR S36G mutant [14]. Further, on α7 nAChR S36I mutant [15], the pEC50 is 4.75. Further, the “reduction of post-control ACh responses” value on WT α7 nAChR [4] (at concentration of greatest evoked response, approximately 300 µM) came to 80%. Further, on WT α7 nAChR [6], the “desensitized state after high-concentration incubation (PNU-120596 response)” value is recorded as “induced exclusively into Di”.
For `Oc1ccc(/C=C2\CCCN=C2c2cccnc2)cc1` [4OHBA, (E)-3-(4-hydroxybenzylidene)anabaseine], the negative logarithm of the IC50 (pIC50) at α7 nAChR S36T mutant [1] is under 3.52; on WT α7 nAChR [4] it was under 3.52; on α7 nAChR S36A mutant [8], 3.69; at α7 nAChR S36C mutant [9] it was 3.63; on α7 nAChR S36V mutant [10] it was 4.21; on α7 nAChR S36I mutant [12], under 3.52. Also, the pIC50 at α7 nAChR S36G mutant [13] was 3.87. The Imax on α7 nAChR S36C mutant [2] was 0.63(0.02); at α7 nAChR S36T mutant [3], 0.50(0.01); on α7 nAChR S36A mutant [5] it was 0.73(0.03); at α7 nAChR S36V mutant [7], 0.50(0.03); at WT α7 nAChR [11], 0.385(0.006); on α7 nAChR S36G mutant [14] it was 0.89(0.06). For the same molecule, the Imax on α7 nAChR S36I mutant [15] is reported as 0.46(0.03). Further, the pEC50 at α7 nAChR S36C mutant [2] is 6.12; at α7 nAChR S36T mutant [3] it was 5.23; on α7 nAChR S36A mutant [5], 6.24; at α7 nAChR S36V mutant [7] it was 6.60; on WT α7 nAChR [11], 5.22 and 5.26; at α7 nAChR S36G mutant [14], 6.28. Further, the pEC50 on α7 nAChR S36I mutant [15] is 5.64. The “reduction of post-control ACh responses” value on WT α7 nAChR [4] (at concentrations required for maximal evoked responses, 30 µM – 300 µM) is reported as 10–20%. In addition, on WT α7 nAChR [4] (potency for producing long-lasting desensitization, 12 s applications), the “IC50 (RD curve)” value is recorded as “far greater than the concentration range studied”. Moreover, the “induction of Ds (response to PNU-120596 after drug bath)” value on WT α7 nAChR [6] (30 µM drug bath, 5 minutes, 30 µM PNU-120596) was “relatively little Ds”. Besides, on WT α7 nAChR [16] (30 µM drug bath, 5 minutes), the “recovery during post-control ACh applications after 5-minute incubation” value is recorded as “fully recovered”. Also, the “post-control ACh responses, low versus high concentration incubation” value at WT α7 nAChR [16] (4OHBA low 3 µM, high 30 µM) is given as “no significant difference”. For the same molecule, the “ACh control responses after 5-minute incubation” value on α7 nAChR S36G mutant [17] is “nearly complete suppression of the ACh control responses”.
In the case of `C(=C1CCCN=C1c1cccnc1)c1ccccc1` [BA, benzylidene anabaseine], the negative logarithm of the IC50 (pIC50) at α7 nAChR S36T mutant [1] is 3.14; at WT α7 nAChR [4] it was 3.57; on α7 nAChR S36A mutant [8] it was 4.04; at α7 nAChR S36C mutant [9], 3.72; on α7 nAChR S36V mutant [10], 3.66; on α7 nAChR S36I mutant [12], under 3.52. Further, the pIC50 on α7 nAChR S36G mutant [13] was 3.45. Also, the Imax at α7 nAChR S36C mutant [2] is 0.30(0.01); on α7 nAChR S36T mutant [3] it was 0.19(0.01); on α7 nAChR S36A mutant [5], 0.45(0.02); on α7 nAChR S36V mutant [7], 0.27(0.05); on WT α7 nAChR [11], 0.31(0.01); at α7 nAChR S36G mutant [14], 0.316(0.003). Also, on α7 nAChR S36I mutant [15], the Imax is reported as 0.18(0.02). For the same molecule, the pEC50 was 4.66 on α7 nAChR S36C mutant [2]; 4.17 on α7 nAChR S36T mutant [3]; 4.57 on α7 nAChR S36A mutant [5]; 4.57 at α7 nAChR S36V mutant [7]; 4.40 and 4.41 at WT α7 nAChR [11]; 4.36 on α7 nAChR S36G mutant [14]. Besides, on α7 nAChR S36I mutant [15], the pEC50 is 4.09. In addition, at WT α7 nAChR [6], the “desensitized state after high-concentration incubation (PNU-120596 response)” value is given as “induced exclusively into Di”.
Turning to `COc1ccc(/C=C2\CCCN=C2c2cccnc2)c(OC)c1` [GTS-21, 3-(2,4-dimethoxybenzylidene)anabaseine], in the test with α7 nAChR, the RD production result is recorded as “significant amounts of RD”.
